Measurements as given in patent US10314811B2, “Compositions and methods for selectively inhibiting intestinal carboxylesterase 2 enzyme activity” (The Methodist Hospital, priority 2015, dated 2019).
Read-outs that look alike come from different tables or passages of the source.

Key:
human liver CES1 = biological target: T1, human liver CES1 (Homo sapiens, UniProt P23141); assay: CES1 enzyme assay (4-nitrophenyl acetate hydrolysis); format: biochemical; details: for inhibition of CES1: concentrations as high as 300 μM
T1 construct: purchased Sigma Aldrich E0162
T1 sequence (P23141 18-567): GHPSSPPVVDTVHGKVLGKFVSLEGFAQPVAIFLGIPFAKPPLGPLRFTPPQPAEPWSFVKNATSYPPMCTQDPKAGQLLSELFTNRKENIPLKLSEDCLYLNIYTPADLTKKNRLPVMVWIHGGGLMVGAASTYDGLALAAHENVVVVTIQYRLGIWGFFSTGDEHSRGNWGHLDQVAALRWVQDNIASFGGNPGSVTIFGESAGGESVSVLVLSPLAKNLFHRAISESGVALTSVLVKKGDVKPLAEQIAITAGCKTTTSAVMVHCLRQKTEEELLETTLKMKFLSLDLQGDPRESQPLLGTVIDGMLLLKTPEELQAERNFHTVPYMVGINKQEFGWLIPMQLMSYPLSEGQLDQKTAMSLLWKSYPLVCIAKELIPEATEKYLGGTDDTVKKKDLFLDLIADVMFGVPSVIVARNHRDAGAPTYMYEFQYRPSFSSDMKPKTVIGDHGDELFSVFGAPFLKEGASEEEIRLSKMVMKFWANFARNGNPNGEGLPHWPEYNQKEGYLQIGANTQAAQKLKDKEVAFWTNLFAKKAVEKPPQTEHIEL
Source text: CES2 and CES1 enzyme assays were used for primary screening and IC50 determination of potential inhibitors. The assays are well established and widely used in compound discovery and lead optimization for CES inhibitors. See, e.g., Wadkins et al. 2004, Mol. Pharmacol. 65(6):1336 1343; Wadkins et al. 2005, J. Med. Chem. 48(8):2906 2915; Hicks et al. 2009, J. Med. Chem. 52(12):3742 3752; Hyatt et al. 2007, J. Med. Chem. 50(8):1876 1885; Hicks et al. 2007, Bioorg. Med. Chem. 15(11):3801 3817; Hyatt et al. 2007, J. Med. Chem., 50(23):5727 5734; Wadkins et al. 2007, Mol. Pharmacol. 71(3):713 723; and Young et al. 2010, J. Med. Chem., 53(24):8709 8715. CES converts esters into the corresponding alcohol and carboxylic acid. The esterase substrate, 4 nitrophenyl acetate (4 NPA), was used to detect enzyme activity. The recombinant purified intestinal CES2 and human liver CES1 enzymes and 4 NPA were purchased from Sigma Aldrich (product ID E0412, E0162, and N8130, respectively). […] The assays were conducted in a total volume of 300 μL in 96 well microtiter plates. Reaction mixtures consisted of the following: 100 μL 50 mM HEPES with 10 units of enzyme, 10 μL compound solution (various concentrations), 2 μL 300 mM 4 NPA and 188 μL 50 mM HEPES, pH 7.4. The test compound and 4 NPA solution were added to the wells first and then the reaction was initiated by the addition of enzyme solution. After incubation for 15 min. at 25° C., absorbance at 405 nm was measured using a microplate reader.

[1] = test system: CT 26 tumor bearing Balb/cJ mice; assay: In vivo testing of anti-diarrheal activity with CPT-11 in tumor bearing mice (Example 3); details: for anti-tumor efficacy, as evaluated by tumor growth, versus CPT-11 only group / losses in body weight induced by CPT-11 treatment / survival rates as compared to CPT-11 alone: 40 mg/kg orally with CPT-11 50 mg/kg i.p.; for anti-tumor efficacy, as evaluated by tumor growth, versus CPT-11 only group: FIG. 1A; for losses in body weight induced by CPT-11 treatment: FIG. 1B at 14-16 days of treatment; for survival rates as compared to CPT-11 alone: FIG. 1C; for day on which diarrhea occurred: CPT-11 50 mg/kg i.p., CES2 inhibitor (if any) 40 mg/kg orally; for Percentage of mice having diarrhea: CPT-11 50 mg/kg i.p. day 1-10, CES2 inhibitor (if any) 40 mg/kg orally day 0-11
Protocol: CPT-11 was purchased from Selleck Chemicals. To obtain an injectable formulation, CPT-11 (20 mg/mL) was dissolved in a solution containing D sorbitol (45 mg/mL) and D lactic acid (0.9 mg/mL) in ddH2O, and heated to ˜70° C. to 90° C. for 5 to 10 min See Trifan et al. 2002, Cancer Res., 62(20):5778 5784. The pH of the solution was adjusted to 3.5 prior to sterile filtration. The solution was stored protected from light until just prior to administration.
Each of these compounds was dissolved separately in 100% DMSO and then diluted into a 0.5% carboxymethylcellulose solution. The final concentration of DMSO was less than 1%.
(§1) Healthy 6-8 week old female Balb/cJ mice were obtained from Jackson Laboratories (Bar Harbor, Me. USA). CT 26 tumor cells, derived from a murine Balb/c colon adenocarcinoma, were used to form tumors by subcutaneous injection of tumor cells into the posterior mid-dorsum of the mice. When tumors reached ˜500 mm^3 (˜10 days after implantation, defined as day 1), treatment was initiated. The mice were divided into five groups of 3-4 animals each and treated as follows:
(1) Vehicle group, mice received an equivalent volume of CPT-11 vehicle i.p. from day 1 to day 10, and an equivalent volume of compound vehicle orally from day 0 to day 11;
(2) CPT-11 only group, mice received CPT-11 (50 mg/kg) i.p. from day 1 to day 10, and an equivalent volume of compound vehicle orally from day 0 to day 11;
CPT-11 and the CES2 inhibitors were each administrated once per day during the experiment.
The CES2 inhibitor treatment groups were compared to the CPT-11 only group and to the vehicle control group. Four major parameters were examined to quantify the effect of CES2 inhibitors, namely, body weight change, presence of diarrhea, survival time, and average tumor size.

[2] = biological target: T2, recombinant purified intestinal CES2 (Homo sapiens, UniProt O00748); assay: CES2 enzyme assay (4-nitrophenyl acetate hydrolysis); format: biochemical
T2 construct: purchased Sigma Aldrich E0412
T2 sequence (O00748 27-559): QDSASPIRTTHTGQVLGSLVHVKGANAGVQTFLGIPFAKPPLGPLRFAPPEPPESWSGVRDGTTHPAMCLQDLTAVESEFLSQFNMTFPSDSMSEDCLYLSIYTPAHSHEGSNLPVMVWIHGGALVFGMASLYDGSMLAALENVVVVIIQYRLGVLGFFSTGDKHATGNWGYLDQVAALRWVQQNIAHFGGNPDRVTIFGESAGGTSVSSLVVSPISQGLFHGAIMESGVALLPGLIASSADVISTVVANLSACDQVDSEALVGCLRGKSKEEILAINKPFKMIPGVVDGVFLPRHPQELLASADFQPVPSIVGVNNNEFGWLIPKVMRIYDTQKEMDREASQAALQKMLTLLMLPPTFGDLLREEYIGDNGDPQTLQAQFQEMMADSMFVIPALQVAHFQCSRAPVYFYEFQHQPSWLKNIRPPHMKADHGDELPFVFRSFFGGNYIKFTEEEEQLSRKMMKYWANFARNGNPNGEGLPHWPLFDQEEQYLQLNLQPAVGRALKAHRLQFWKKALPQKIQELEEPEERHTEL
Protocol: CES2 and CES1 enzyme assays were used for primary screening and IC50 determination of potential inhibitors. […] The esterase substrate, 4 nitrophenyl acetate (4 NPA), was used to detect enzyme activity. The recombinant purified intestinal CES2 and human liver CES1 enzymes and 4 NPA were purchased from Sigma Aldrich (product ID E0412, E0162, and N8130, respectively). […] The assays were conducted in a total volume of 300 μL in 96 well microtiter plates. Reaction mixtures consisted of the following: 100 μL 50 mM HEPES with 10 units of enzyme, 10 μL compound solution (various concentrations), 2 μL 300 mM 4 NPA and 188 μL 50 mM HEPES, pH 7.4. The test compound and 4 NPA solution were added to the wells first and then the reaction was initiated by the addition of enzyme solution. After incubation for 15 min. at 25° C., absorbance at 405 nm was measured using a microplate reader.

[3] = test system: CT 26 tumor bearing Balb/cJ mice; assay: In vivo efficacy of CPT-11 plus hesperetin at different doses (Example 4); details: for Percentage of mice having diarrhea: CPT-11 alone
Source text: as §1

[4] = 4 NPA substrate, 15 min at 25° C., pH 7.4, read-out: IC50 CES1 Assay
[5] = both hesperetin doses (20 mg/kg and 100 mg/kg) with CPT-11

With `O=C(/C=C/c1ccccc1)c1ccc(O)cc1O` [2′,4′ dihydroxychalcone, 2′,4′-dihydroxychalcone] the IC50 (human liver CES1; [4]) was over 300 µM, the “inhibition of CES1” value (human liver CES1) was “No significant inhibition” and the “anti-tumor efficacy, as evaluated by tumor growth, versus CPT-11 only group” value (“anti-tumor efficacy … versus CPT-11 only group” below) [1] was “No significant changes”. For the same molecule, the “losses in body weight induced by CPT-11 treatment” value [1] was “reversed”, the “survival rates as compared to CPT-11 alone” value [1] was “improved” and the “day on which diarrhea occurred” value [1] was 13 days. For the same molecule, the “Percentage of mice having diarrhea” value ([1]; day 12 after treatment) was “no mice”, the “Selectivity (IC50 CES1)/(IC50 CES2)” value [2] was over 180 and the IC50 ([2]; 4 NPA substrate, 15 min at 25° C., pH 7.4) was 1.66 µM.
For `CCc1c2c(nc3ccc(OC(=O)N4CCC(N5CCCCC5)CC4)cc13)-c1cc3c(c(=O)n1C2)COC(=O)[C@]3(O)CC` [CPT-11, irinotecan], the “day on which diarrhea occurred” value [1] was 9 days, the “Percentage of mice having diarrhea” value ([1]; day 9 after treatment) was 50% and the “Percentage of mice having diarrhea” value ([1]; day 10 after treatment) was 50%. For the same molecule, the “Percentage of mice having diarrhea” value ([1]; day 11 after treatment) was 75%, the “Percentage of mice having diarrhea” value ([1]; day 12 after treatment) was 75% and the “Percentage of mice having diarrhea” value ([1]; day 13 after treatment) was 75%. For the same molecule, the “Percentage of mice having diarrhea” value ([1]; day 14 after treatment) was 75%, the “Percentage of mice having diarrhea” value ([3]; day 8 after treatment) was 10% and the “Percentage of mice having diarrhea” value ([3]; day 9 after treatment) was 20%. For the same molecule, the “Percentage of mice having diarrhea” value ([3]; day 10 after treatment) was 40%, the “Percentage of mice having diarrhea” value ([3]; day 11 after treatment) was 70% and the “Percentage of mice having diarrhea” value ([3]; day 12 after treatment) was 70%.
For `COc1ccc([C@@H]2CC(=O)c3c(O)cc(O)cc3O2)cc1O` [hesperetin], the IC50 (human liver CES1) was over 300 µM, the “inhibition of CES1” value (human liver CES1) was “No significant inhibition” and the “anti-tumor efficacy … versus CPT-11 only group” value [1] was “No significant changes”. The “losses in body weight induced by CPT-11 treatment” value [1] was “reversed”, the “survival rates as compared to CPT-11 alone” value [1] was “improved” and the “day on which diarrhea occurred” value [1] was 12 days. For the same molecule, the “Percentage of mice having diarrhea” value ([1]; day 12 after treatment) was 25%, the “number of animals exhibiting diarrhea as compared to CPT-11 alone” value [3, 5] was “reduced” and the “onset of diarrhea as compared to CPT-11 alone” value [3, 5] was “significantly delayed”. For the same molecule, the “survival of animals as compared to CPT-11 alone” value ([3]; co-administering hesperetin and CPT-11, both hesperetin doses, FIG. 2C) was “improved”, the “loss in body weight induced by CPT-11 administration” value ([3]; co-administration of hesperetin at both doses tested, FIG. 2B) was “reduced” and the “anti-tumor efficacy of CPT-11 on co-administration” value ([3]; either dose of hesperetin (20 mg/kg or 100 mg/kg)) was “improved”. For the same molecule, the “day of onset of diarrhea” value ([3]; hesperetin 20 mg/kg with CPT-11) was 10 days and the “day of onset of diarrhea” value ([3]; hesperetin 100 mg/kg with CPT-11) was 12 days.
With `O=C1C[C@@H](c2ccc(O)cc2)Oc2cc(O)cc(O)c21` [naringenin] the IC50 (human liver CES1; [4]) was 159 µM and the “anti-tumor efficacy … versus CPT-11 only group” value [1] was “No significant changes”.
